Assay results published in patent US4232150A, “Oligosaccharide precursors to substituted O-α-D and O-β-D-multigalactopyranosyl and glucopyranosyl 1→4 and 1→6 galactopyranosyl 1→6α-D-glucopyranoses” (American Cyanamid Company, priority 1979, dated 1980).
Structures can show the parent of a compound that is named as a salt.

How the values were obtained:
Conditions in all cases: serial twofold dilution assay; higher well number indicates higher activity
activated human C1 = molecular target: T1, activated human C1 (Homo sapiens, UniProt P09871); test: Test Code 026 (C1 inhibitor); type: biochemical
T1 construct: functional test of fluid-phase human C2 destruction in presence of C4
Excerpt: (§1) An active inhibitor protects C2 from C1 and C4; (ii) Test Cod3 035 (3-C9 inhibitor)--This test determines the ability of the late components of human complement (C3-C9) to lyse EAC 142 in the presence of appropriate dilutions of the test compound. An active inhibitor protects EAC 142 from lysis by human C3-C9; (iii) Test Code 036 (C-Shunt inhibitor)--In this test human erythrocytes rendered fragile are lysed in autologous serum via the shunt pathway activated by cobra venom factor in the presence of appropriate dilutions of the test compound. Inhibition of the shunt pathway results in failure of lysis; (iv) Forssman Vasculitis Test--Here, the well known complement dependent lesion, Forssman vasculitis, is produced in guinea pigs by intradermal injection of rabbit anti-Forssman antiserum. The lesion is measured in terms of diameter, edema and hemorrhage and the extent to which a combined index of these is inhibited by prior intraperitoneal injection of the test compound at 200 mg/kg is then reported, unless otherwise stated; (v) Forssman Shock Test--Lethal shock is produced in guinea pigs by an i.v. injection of anti-Forssman antiserum and the harmonic mean death time of treated guinea pigs is compared with that of simultaneous controls; (vi) Complement Level Reduction Test--In this test, the above dosed guinea pigs, or others, are bled for serum and the complement level is determined in undiluted serum by the capillary tube method of U.S. Pat. No. 3,876,376 and compared to undosed control guinea pigs; (vii) Cap 50 Test--Here, appropriate amounts of the test compound are added to a pool of guinea pig serum in vitro, after which the undiluted serum capillary tube assay referred to above is run. The concentration of compound inhibiting 50% is reported;
(§2) **Activity in wells, a serial dilution assay; higher well number indicate
(§3) higher activity. The serial dilutions are twofold

[1] = tested on: shunt pathway activated by cobra venom factor; test: Test Code 036 (C-Shunt inhibitor), lysis of human erythrocytes by cobra venom factor; type: cell-based
Excerpt: as §1, §2, §3

[2] = tested on: late components of human complement (C3-C9); test: Test Code 035 (C3-C9 inhibitor; C-Late), lysis of EAC 142; type: cell-based
Excerpt: as §1, §2, §3

T1 sequence (P09871 16-688): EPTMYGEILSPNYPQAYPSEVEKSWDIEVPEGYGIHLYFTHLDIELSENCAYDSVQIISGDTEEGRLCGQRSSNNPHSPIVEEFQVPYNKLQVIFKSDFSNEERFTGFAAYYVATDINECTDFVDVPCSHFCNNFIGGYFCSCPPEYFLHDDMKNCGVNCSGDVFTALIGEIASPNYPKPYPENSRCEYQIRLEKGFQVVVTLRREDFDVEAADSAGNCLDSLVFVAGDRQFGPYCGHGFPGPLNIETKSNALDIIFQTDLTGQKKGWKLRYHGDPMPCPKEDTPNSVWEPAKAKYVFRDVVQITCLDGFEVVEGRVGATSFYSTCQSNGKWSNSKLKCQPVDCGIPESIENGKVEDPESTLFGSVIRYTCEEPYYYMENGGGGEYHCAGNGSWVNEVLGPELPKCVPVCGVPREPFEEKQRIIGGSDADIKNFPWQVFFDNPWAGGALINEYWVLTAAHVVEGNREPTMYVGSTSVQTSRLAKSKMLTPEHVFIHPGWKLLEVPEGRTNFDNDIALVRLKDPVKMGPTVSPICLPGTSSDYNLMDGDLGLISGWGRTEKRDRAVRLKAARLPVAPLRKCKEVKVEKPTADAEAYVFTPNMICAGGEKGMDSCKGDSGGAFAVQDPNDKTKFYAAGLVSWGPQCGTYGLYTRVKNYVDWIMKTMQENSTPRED
T1 sequence (P00736 18-705 partner): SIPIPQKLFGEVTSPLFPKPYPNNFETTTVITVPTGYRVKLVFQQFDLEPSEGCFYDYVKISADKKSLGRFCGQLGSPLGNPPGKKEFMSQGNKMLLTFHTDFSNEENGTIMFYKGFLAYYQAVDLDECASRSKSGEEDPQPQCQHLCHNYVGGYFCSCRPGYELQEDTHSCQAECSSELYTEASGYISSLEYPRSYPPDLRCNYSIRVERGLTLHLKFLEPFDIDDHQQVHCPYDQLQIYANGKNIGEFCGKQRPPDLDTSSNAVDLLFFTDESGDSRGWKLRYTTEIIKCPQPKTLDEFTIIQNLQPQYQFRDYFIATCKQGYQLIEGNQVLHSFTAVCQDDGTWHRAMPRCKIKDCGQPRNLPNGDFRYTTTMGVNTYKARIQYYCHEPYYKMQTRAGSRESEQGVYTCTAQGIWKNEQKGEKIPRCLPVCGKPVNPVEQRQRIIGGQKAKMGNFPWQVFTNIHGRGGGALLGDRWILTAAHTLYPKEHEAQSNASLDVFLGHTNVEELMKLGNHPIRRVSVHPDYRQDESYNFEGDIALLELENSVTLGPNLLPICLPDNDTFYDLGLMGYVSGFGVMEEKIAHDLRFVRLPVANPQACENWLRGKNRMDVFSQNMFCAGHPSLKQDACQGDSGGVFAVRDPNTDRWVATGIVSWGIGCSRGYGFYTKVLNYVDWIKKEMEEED
T1 sequence (P02745 23-245 partner): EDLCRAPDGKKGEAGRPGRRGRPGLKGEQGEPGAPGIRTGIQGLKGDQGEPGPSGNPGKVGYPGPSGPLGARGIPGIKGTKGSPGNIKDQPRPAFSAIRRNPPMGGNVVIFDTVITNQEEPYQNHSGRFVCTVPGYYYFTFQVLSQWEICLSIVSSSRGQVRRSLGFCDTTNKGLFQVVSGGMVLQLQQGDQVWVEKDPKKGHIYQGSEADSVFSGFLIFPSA
T1 sequence (P02746 28-253 partner): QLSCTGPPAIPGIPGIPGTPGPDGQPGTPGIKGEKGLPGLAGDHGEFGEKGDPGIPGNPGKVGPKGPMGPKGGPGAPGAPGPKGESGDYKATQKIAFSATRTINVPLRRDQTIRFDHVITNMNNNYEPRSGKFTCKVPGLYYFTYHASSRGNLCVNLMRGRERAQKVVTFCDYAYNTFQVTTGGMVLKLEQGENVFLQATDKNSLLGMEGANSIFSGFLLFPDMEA
T1 sequence (P02747 29-245 partner): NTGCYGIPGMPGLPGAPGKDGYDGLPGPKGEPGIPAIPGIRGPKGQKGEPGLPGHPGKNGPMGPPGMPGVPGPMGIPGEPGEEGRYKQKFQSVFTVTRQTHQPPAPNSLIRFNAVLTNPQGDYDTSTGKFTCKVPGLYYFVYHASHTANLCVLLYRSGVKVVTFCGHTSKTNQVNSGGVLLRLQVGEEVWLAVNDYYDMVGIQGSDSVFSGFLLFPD

Row | SMILES | C1 026* Wells (activated human C1) | Shunt Inhibition 036* Wells [1] | C-Late 035* Wells [2]
1 | O=S(=O)(O)OC[C@H]1O[C@@H](OC[C@H]2O[C@H](OC[C@H]3O[C@H](OS(=O)(=O)O)[C@H](OS(=O)(=O)O)[C@@H](OS(=O)(=O)O)[C@@H]3OS(=O)(=O)O)[C@H](OS(=O)(=O)O)[C@@H](OS(=O)(=O)O)[C@H]2OS(=O)(=O)O)[C@H](OS(=O)(=O)O)[C@@H](OS(=O)(=O)O)[C@@H]1O[C@H]1O[C@H](COS(=O)(=O)O)[C@@H](O[C@H]2O[C@H](COS(=O)(=O)O)[C@@H](OS(=O)(=O)O)[C@H](OS(=O)(=O)O)[C@H]2OS(=O)(=O)O)[C@H](OS(=O)(=O)O)[C@H]1OS(=O)(=O)O [(glc →1α,4)2 glc →1β,6 gal →1α,6 heptadecakis (H-sulfate), h] [(Glc 1α,4)2 glc 1β,6 gal 1α,6 glc heptadecakis (H-sulfate) heptadecasodium salt] | +9 Wells | +6 Wells | +2 Wells
2 | O=S(=O)(O)OC[C@H]1O[C@@H](OC[C@H]2O[C@H](OC[C@H]3OC(OS(=O)(=O)O)[C@H](OS(=O)(=O)O)[C@@H](OS(=O)(=O)O)[C@@H]3OS(=O)(=O)O)[C@H](OS(=O)(=O)O)[C@@H](OS(=O)(=O)O)[C@H]2OS(=O)(=O)O)[C@H](OS(=O)(=O)O)[C@@H](OS(=O)(=O)O)[C@@H]1O[C@H]1O[C@H](COS(=O)(=O)O)[C@@H](O[C@H]2O[C@H](COS(=O)(=O)O)[C@@H](O[C@H]3O[C@H](COS(=O)(=O)O)[C@@H](O[C@H]4O[C@H](COS(=O)(=O)O)[C@@H](O[C@H]5O[C@H](COS(=O)(=O)O)[C@@H](O[C@H]6O[C@H](COS(=O)(=O)O)[C@@H](OS(=O)(=O)O)[C@H](OS(=O)(=O)O)[C@H]6OS(=O)(=O)O)[C@H](OS(=O)(=O)O)[C@H]5OS(=O)(=O)O)[C@H](OS(=O)(=O)O)[C@H]4OS(=O)(=O)O)[C@H](OS(=O)(=O)O)[C@H]3OS(=O)(=O)O)[C@H](OS(=O)(=O)O)[C@H]2OS(=O)(=O)O)[C@H](OS(=O)(=O)O)[C@H]1OS(=O)(=O)O (stereo partly drawn) [(glc →1α,4)6 glc →1β,6 gal →1α,6 glc nonacosakis (H-sulfate)] [(Glc 1α,4)6 glc 1β,6 gal 1α,6 glc nonacosakis (H-sulfate) nonacosasalt with trimethylamine] | +10 Wells | +5 Wells | +1 Wells
3 | O=S(=O)(O)OC[C@H]1O[C@@H](OC[C@H]2O[C@H](OC[C@H]3O[C@H](OS(=O)(=O)O)[C@H](OS(=O)(=O)O)[C@@H](OS(=O)(=O)O)[C@@H]3OS(=O)(=O)O)[C@H](OS(=O)(=O)O)[C@@H](OS(=O)(=O)O)[C@H]2OS(=O)(=O)O)[C@H](OS(=O)(=O)O)[C@@H](OS(=O)(=O)O)[C@@H]1O[C@H]1O[C@H](COS(=O)(=O)O)[C@@H](O[C@H]2O[C@H](COS(=O)(=O)O)[C@@H](OS(=O)(=O)O)[C@H](OS(=O)(=O)O)[C@H]2OS(=O)(=O)O)[C@H](OS(=O)(=O)O)[C@H]1OS(=O)(=O)O [(glc →1α,4) 2 glc →1β,6 gal →1α,6 heptadecakis (H-sulfate), ] [(Glc 1α,4)2 glc 1β,6 gal 1α,6 glc heptadecakis (H-sulfate) heptadecasalt with trimethylamine] | +9 Wells | – | +1 Wells
4 | O=S(=O)(O)OC[C@H]1O[C@H](OC[C@H]2OC(OS(=O)(=O)O)[C@H](OS(=O)(=O)O)[C@@H](OS(=O)(=O)O)[C@@H]2OS(=O)(=O)O)[C@H](OS(=O)(=O)O)[C@@H](OS(=O)(=O)O)[C@H]1OS(=O)(=O)O (stereo partly drawn) [Gal 1α,6 glc octakis (H-sulfate), octasodium salt] | +8 Wells | – | –
5 | O=S(=O)(O)OC[C@H]1O[C@@H](OC[C@H]2O[C@H](OC[C@H]3O[C@H](OS(=O)(=O)O)[C@H](OS(=O)(=O)O)[C@@H](OS(=O)(=O)O)[C@@H]3OS(=O)(=O)O)[C@H](OS(=O)(=O)O)[C@@H](OS(=O)(=O)O)[C@H]2OS(=O)(=O)O)[C@H](OS(=O)(=O)O)[C@@H](OS(=O)(=O)O)[C@H]1OS(=O)(=O)O [gal →1β,6 gal →1α,6 glc undecakis -sulfate), undecasalt with] [Gal 1β,6 gal 1α,6 glc undecakis (H-sulfate), undecasalt with trimethylamine] | +9 Wells | – | –
6 | O=S(=O)(O)OC[C@H]1O[C@@H](OC[C@H]2O[C@H](OC[C@H]3O[C@H](OS(=O)(=O)O)[C@H](OS(=O)(=O)O)[C@@H](OS(=O)(=O)O)[C@@H]3OS(=O)(=O)O)[C@H](OS(=O)(=O)O)[C@@H](OS(=O)(=O)O)[C@H]2OS(=O)(=O)O)[C@H](OS(=O)(=O)O)[C@@H](OS(=O)(=O)O)[C@H]1OS(=O)(=O)O [gal →1β,6 gal →1α,6 glc undecakis -sulfate), undecasodium sa] [Gal 1β,6 gal 1α,6 glc undecakis (H-sulfate), undecasodium salt] | +9 Wells | – | –
7 | O=S(=O)(O)OC[C@H]1O[C@@H](OC[C@H]2O[C@H](OC[C@H]3OC(OS(=O)(=O)O)[C@H](OS(=O)(=O)O)[C@@H](OS(=O)(=O)O)[C@@H]3OS(=O)(=O)O)[C@H](OS(=O)(=O)O)[C@@H](OS(=O)(=O)O)[C@H]2OS(=O)(=O)O)[C@H](OS(=O)(=O)O)[C@@H](OS(=O)(=O)O)[C@@H]1O[C@H]1O[C@H](COS(=O)(=O)O)[C@@H](OS(=O)(=O)O)[C@H](OS(=O)(=O)O)[C@H]1OS(=O)(=O)O (stereo partly drawn) [glc →1α,4 glc →1β,6 gal →1α,6 glc tetradecakis (H-sulfate), ] [Glc 1α,4 glc 1β,6 gal 1α,6 glc tetradecakis (H-sulfate), tetradecasalt with trimethylamine] | – | – | +1 Wells
8 | O=S(=O)(O)OC[C@H]1O[C@@H](OC[C@H]2O[C@H](OC[C@H]3O[C@H](OS(=O)(=O)O)[C@H](OS(=O)(=O)O)[C@@H](OS(=O)(=O)O)[C@@H]3OS(=O)(=O)O)[C@H](OS(=O)(=O)O)[C@@H](OS(=O)(=O)O)[C@H]2OS(=O)(=O)O)[C@H](OS(=O)(=O)O)[C@@H](OS(=O)(=O)O)[C@@H]1O[C@@H]1O[C@H](COS(=O)(=O)O)[C@@H](OS(=O)(=O)O)[C@H](OS(=O)(=O)O)[C@H]1OS(=O)(=O)O [glc →1β,4 glc →1β,6 gal →1α,6 glc tetradecakis (H-sulfate), ] [Glc 1β,4 glc 1β,6 gal 1α,6 glc tetradecakis (H-sulfate), tetradecasodium salt] | +9 Wells | – | –
9 | O=S(=O)(O)OC[C@H]1O[C@@H](OC[C@H]2O[C@H](OC[C@H]3O[C@H](OS(=O)(=O)O)[C@H](OS(=O)(=O)O)[C@@H](OS(=O)(=O)O)[C@@H]3OS(=O)(=O)O)[C@H](OS(=O)(=O)O)[C@@H](OS(=O)(=O)O)[C@H]2OS(=O)(=O)O)[C@H](OS(=O)(=O)O)[C@@H](OS(=O)(=O)O)[C@@H]1O[C@@H]1O[C@H](COS(=O)(=O)O)[C@@H](OS(=O)(=O)O)[C@H](OS(=O)(=O)O)[C@H]1OS(=O)(=O)O [glc →1β,4 glc →1β,6 gal →1α,6 glc tetradicakis (H-sulfate), ] [Glc 1β,4 glc 1β,6 gal 1α,6 glc tetradecakis (H-sulfate), tetradecasalt with trimethylamine] | +9 Wells | +4 Wells | –
